According to paper PMC5869871 (Investigational New Drugs, 2017):
Read-outs that look alike come from different tables or passages of the source. Marks after values point to notes of the source that are not given here. One block for each compound: values may come before it.

Tests used:
[1] = Study 1 safety assessment (adverse events, laboratory results, vital signs, ECG); format: in vivo, human
Procedure: Safety was evaluated based on the incidence of adverse events, and changes from baseline in vital signs, ECGs, weight and clinical laboratory results and ECOG status.

[2] = cited from earlier work
[3] = cited from earlier work; remark: listed apart in the source
[4] = Study 2 safety assessment (adverse events, laboratory results, vital signs, ECG); format: in vivo, human
Procedure: (§1) Study 2 was a phase 1, open-label study in patients with advanced solid tumors or relapsed/refractory lymphomas.
(§2) Patients also received oral solution doses of 200 mg itraconazole QD on Days 5 through 13. […] Itraconazole was administered in the study center on Days 5, and 10 through 13 with the remaining doses being administered at home by the patients.

[5] = Study 2: single-dose plasma pharmacokinetics of alisertib, M1 and M2 with and without itraconazole; details: for t1/2 / Tmax / half-life: single 30 mg alisertib ECT; for t1/2 / half-life: arithmetic mean (SD); for Tmax: median (minimum, maximum); for half-life: t1/2, Study 2
Procedure: as §1, §2
(§3) [1, 2] […] The quantitation range for the M1 assay was 2.00 to 1000 ng/mL, the assay precision ranged from 3.0 to 4.1% and the mean accuracy ranged from −1.5 to 0.3%. The quantitation range for the M2 assay was 2.00 to 1000 ng/mL, the assay precision ranged from 3.0 to 4.3% and the mean accuracy ranged from −1.1 to 0.7%.
(§4) Pharmacokinetic parameters were estimated where data permitted using non-compartmental analysis with Phoenix™ WinNonlin® Version 6.3 (Pharsight Corporation, Mountain View, CA, USA). […] The AUC parameters were estimated using the linear-log trapezoidal rule.
(§5) The analyses utilized a fixed-sequence repeated measures mixed-effects linear model. All inferences were based on least squares (LS) means estimated from this model. All statistical analyses were conducted using SAS version 9.2 (SAS Institute, NC, USA).

[6] = Study 1: single-dose plasma pharmacokinetics of alisertib, M1 and M2 with and without esomeprazole or rifampin; details: for t1/2 / half-life: arithmetic mean (SD); for AUC(0-inf): AUC0-inf; for AUC(0-t): AUC0-last
Procedure: (§6) Study 1 was a phase 1, open-label, fixed sequence, 2-cycle study in patients with advanced solid tumors or lymphomas.
(§7) In Cycle 2, patients also received single daily doses of either esomeprazole (40 mg QD delayed-release capsules) or rifampin (600 mg once daily [QD]) on Days 1 through 10.
(§8) Patients attended the study center on the day prior to the first dose (Day −1) for baseline assessments and returned on each of Days 1 to 4 of Cycle 1 and Days 8 to 11 of Cycle 2 for study assessments.
(§9) The quantitation range for the M1 assay was 2.00 to 1000 ng/mL, the assay precision ranged from 3.0 to 4.1% and the mean accuracy ranged from −1.5 to 0.3%. The quantitation range for the M2 assay was 2.00 to 1000 ng/mL, the assay precision ranged from 3.0 to 4.3% and the mean accuracy ranged from −1.1 to 0.7%. The same assays were used in Study 2, with similar values for assay precision and accuracy.
as §4
(§10) The analyses utilized a fixed-sequence repeated measures mixed-effects linear model. All inferences were based on least squares (LS) means estimated from this model. All statistical analyses were conducted using SAS version 9.2 (SAS Institute, NC, USA). The sample size for both studies was based on the expected 90% CIs for the ratio of geometric mean AUCs. For Study 1, the within-patient CV was estimated to be 39.4% based on prior clinical PK data in cancer patients. […] For Study 2, the within-patient CV was estimated to be 31% based on more recent clinical PK data and a sample size of 16 patients was expected to provide 90% CIs of 0.83X, 1.21X.

CYP3A4 = system: CYP3A4; set-up: method as in Takeda data on file; details: ref Takeda data on file; cited from earlier work
[7] = human, in vivo; for mean t1/2 / median Tmax: 50 mg
Procedure: as §6, §7, §8, §9, §4, §10

[8] = in vivo; for AUC0-last / AUC(0-inf) / Cmax / Tmax / t1/2: human, 30 mg
Procedure: as §1, §2, §3, §4, §5

[9] = Study 2, absence of itraconazole
[10] = human, plasma, oral, 50 mg, Study 1 esomeprazole arm, single 50 mg alisertib ECT, absence of esomeprazole, geometric mean (%CV)
[11] = human, plasma, oral, 50 mg, Study 1 rifampin arm, single 50 mg alisertib ECT, absence of rifampin, geometric mean (%CV)
[12] = human, plasma, oral, Study 1 esomeprazole arm, single 50 mg alisertib ECT, presence of esomeprazole 40 mg QD, geometric mean (%CV)
[13] = human, plasma, oral, Study 1 rifampin arm, single 50 mg alisertib ECT, presence of rifampin 600 mg QD, geometric mean (%CV)

Structure (SMILES): COc1cc(Nc2ncc3c(n2)-c2ccc(Cl)cc2C(c2c(F)cccc2OC)=NC3)ccc1C(=O)O [Alisertib]
patients who died during the study ([1]; Study 1, none deemed related to study treatment): Four
Alopecia, treatment-related ([1]; human, in vivo): 17 (31) n (%)
Anaemia, treatment-related ([1]; human, in vivo): 10 (18) n (%)
Decreased appetite, treatment-related ([1]; human, in vivo): 8 (15) n (%)
Dehydration, treatment-related ([1]; human, in vivo): 6 (11) n (%)
Diarrhea, treatment-related ([1]; human, in vivo): 18 (33) n (%)
Fatigue, treatment-related ([1]; human, in vivo): 14 (25) n (%)
Leukopenia, treatment-related ([1]; human, in vivo): 7 (13) n (%)
Nausea, treatment-related ([1]; human, in vivo): 10 (18) n (%)
Neutropenia, treatment-related ([1]; human, in vivo): 17 (31) n (%)
Stomatitis, treatment-related ([1]; human, in vivo): 14 (25) n (%)
Thrombocytopenia, treatment-related ([1]; human, in vivo): 7 (13) n (%)
Vomiting, treatment-related ([1]; human, in vivo): 8 (15) n (%)
patients with at least 1 adverse event ([1]; human, in vivo): 52 (95%) patients
treatment-related serious adverse events nausea and vomiting (each) ([1]; human, in vivo): 2 patients
leukocytes and neutrophils over the course of the study ([1]; in vivo): decreases were observed
patients with other serious adverse events considered treatment related ([1]; in vivo): Five
vital signs or ECG findings ([1]; in vivo): no notable trends
aqueous solubility ([2]; at acidic pH): low
pKa ([2]; free acid): 4.53
apparent oral clearance [3]: 4.25 L/h
leukocytes and neutrophils over the course of the study [4]: decreases were observed
vital signs or ECG findings [4]: no notable trends
t1/2 [5, 9]: 22.6 (10.3)^k h
Tmax [5, 9]: 2.9 (1.1, 10) h
t1/2 ([5]; Study 2, presence of itraconazole 200 mg QD): 25.4 (9.2)^l h
change in Cmax in the presence of itraconazole ([5]; Study 2, single 30 mg alisertib, itraconazole 200 mg QD versus alone): did not alter
AUC(0-inf) ([5]; human, plasma, oral, 30 mg): 14.8 µM·h
AUC(0-t) ([5]; human, plasma, oral, 30 mg): 13.5 µM·h
Cmax ([5]; human, plasma, oral, 30 mg): 986 nM
Tmax ([5]; human, plasma, oral, 30 mg, Tmax, Study 2, absence of itraconazole): ~3 h
half-life ([5]; human, plasma, oral, 30 mg, absence of itraconazole): ~23 h
Tmax ([5]; human, plasma, oral, Tmax, Study 2, presence of itraconazole 200 mg QD): 2.9 h
half-life ([5]; human, plasma, oral, presence of itraconazole 200 mg QD): ~25 h
increase in alisertib AUCinf (systemic exposure) by esomeprazole ([6]; Study 1, single 50 mg alisertib, esomeprazole 40 mg QD): 28%
decrease in alisertib AUCinf (AUC) by rifampin ([6]; Study 1, single 50 mg alisertib, rifampin 600 mg QD): approximately 50%
change in Cmax in the presence of rifampin ([6]; Study 1, single 50 mg alisertib, rifampin 600 mg QD versus alone, metabolites not statistically compared): did not alter
t1/2 ([6]; Study 1 esomeprazole arm, single 50 mg alisertib ECT, absence of esomeprazole): 16.1 (5.4)^b h
Tmax ([6]; Study 1 esomeprazole arm, single 50 mg alisertib ECT, presence of esomeprazole 40 mg QD, median (minimum, maximum)): 3 (1, 8) h
t1/2 ([6]; Study 1 rifampin arm, single 50 mg alisertib ECT, absence of rifampin): 16.3 (6.6)^h
AUC0-last ([6]; Study 1 rifampin arm, single 50 mg alisertib ECT, absence of rifampin, plasma, geometric mean (%CV)): 17,936 (43%) nM*h
t1/2 ([6]; Study 1 rifampin arm, single 50 mg alisertib ECT, presence of rifampin 600 mg QD): 8.2 (5.5)^i h
Tmax ([6]; Study 1 rifampin arm, single 50 mg alisertib ECT, presence of rifampin 600 mg QD, median (minimum, maximum)): 2.1 (1, 6) h
AUC(0-inf) [6, 10]: 20.3 µM·h
AUC(0-inf) [6, 11]: 16.2 µM·h
AUC(0-t) [6, 10]: 19.6 µM·h
Cmax [6, 10]: 1500 nM
Cmax [6, 11]: 1450 nM
Tmax ([6]; human, plasma, oral, 50 mg, Tmax, Study 1 esomeprazole arm, single 50 mg alisertib ECT, absence of esomeprazole, median (minimum, maximum)): 4 h
Tmax ([6]; human, plasma, oral, 50 mg, Tmax, Study 1 rifampin arm, single 50 mg alisertib ECT, absence of rifampin, median (minimum, maximum)): 4 h
Tmax ([6]; human, plasma, oral, 50 mg, median Tmax, Study 1, both treatment arms, 50 mg alisertib administered alone): 3 to 4 h
half-life ([6]; human, plasma, oral, 50 mg, t1/2, Study 1 esomeprazole arm, single 50 mg alisertib ECT, absence of esomeprazole): ~16 h
half-life ([6]; human, plasma, oral, 50 mg, t1/2, Study 1 rifampin arm, single 50 mg alisertib ECT, absence of rifampin): ~16 h
AUC(0-inf) [6, 12]: 25.9 µM·h
AUC(0-inf) [6, 13]: 8.65 µM·h
AUC(0-t) [6, 12]: 24.5 µM·h
AUC(0-t) [6, 13]: 9.06 µM·h
Cmax [6, 12]: 1720 nM
Tmax ([6]; human, plasma, oral, Tmax, Study 1 rifampin arm, single 50 mg alisertib ECT, presence of rifampin 600 mg QD, median (minimum, maximum)): ~2 h
half-life ([6]; human, plasma, oral, t1/2, Study 1 esomeprazole arm, single 50 mg alisertib ECT, presence of esomeprazole 40 mg QD): ~16 h
half-life ([6]; human, plasma, oral, t1/2, Study 1 rifampin arm, single 50 mg alisertib ECT, presence of rifampin 600 mg QD): ~8 h
CYP3A4-mediated metabolism as share of alisertib total clearance (estimated) (CYP3A4): approximately 60%

mean t1/2 [7]: 15 to 18 h
median Tmax [7]: 4 h
AUC0-last [8]: 4962 (164%) nM*h
AUC(0-inf) [8]: 5758 (174%)^d nM*h
Cmax [8]: 287 nM
Tmax [8]: 3.1 (1, 23) h
t1/2 [8]: 23.0 (11.2)^h
Structure (SMILES): COc1cc(Nc2ncc3c(n2)-c2ccc(Cl)cc2C(c2c(F)cccc2OC)=NC3)ccc1C(=O)O[C@@H]1O[C@H](C(=O)O)[C@@H](O)[C@H](O)[C@H]1O [M1, alisertib acylglurcuronide]

mean t1/2 [7]: 19.1 to 22 h
median Tmax [7]: 10 h
change in mean AUC0-inf in the presence of rifampin ([7]; 600 mg): increased
change in mean t1/2 in the presence of rifampin ([7]; 600 mg): decreased
AUC0-last [8]: 4977 (58%) nM*h
AUC(0-inf) [8]: 4926 (41%)^i nM*h
Cmax [8]: 100 nM
Tmax [8]: 9.4 (3.0, 48) h
t1/2 [8]: 28 (9.2)^i h
systemic exposure metabolite/parent ratio following multiple dose itraconazole [8]: decreased
Structure (SMILES): COc1cc(Nc2ncc3c(n2)-c2ccc(Cl)cc2C(c2c(O)cccc2F)=NC3)ccc1C(=O)O [M2, O-desmethyl alisertib]
